Data reported in EP1614683B1, “Indazole compounds and pharmaceutical compositions for inhibiting protein kinases, and methods for their use” (priority 1999, dated 2001).
“And” between values parts separate entries of the source, which are not always exact repeats. Equal values may be shown once. Read-outs that look alike come from different tables or passages of the source. Marks after values point to notes of the source that are not given here.

What was measured:
[1] = in vivo; settings: mouse, plasma, pH 2.3
[2] = test system: human umbilical vein endothelial cells (HUVEC); assay: HUVEC proliferation assay (VEGF-stimulated, MTT); format: cell-based; settings: Homo sapiens, HUVEC, Table 1
[3] = in vitro; format: in vitro ADME, human; settings: human liver microsomes, 5 µM test compound, 37 °C, 2 h; for remaining at 2 h, 5 µM: read-out: % remain (HLM, 2 h)
Description: Compound metabolism in human liver microsomes was measured by LC-MS analytical assay procedures as follows. First, human liver microsomes (HLM) were thawed and diluted to 5 mg/mL with cold 100 mM potassium phosphate (KPO4) buffer. Appropriate amounts of KPO4 buffer, NADPH-regenerating solution (containing B-NADP, glucose-6-phosphate, glucose-6-phosphate dehydrogenase, and MgCl2), and HLM were preincubated in 13 x 100 mm glass tubes at 37 C for 10 min. (3 tubes per test compound--triplicate). Test compound (5 µM final) was added to each tube to initiate reaction and was mixed by gentle vortexing, followed by incubation at 37 °C. At t=0, 2 h, a 250-µL sample was removed from each incubation tube to separate 12 x 75 mm glass tubes containing 1 mL ice-cold acetonitrile with 0.05 µM reserpine. […] Supernatant was transferred to new 12 x 75 mm glass tubes and evaporated by Speed-Vac centrifugal vacuum evaporator. Samples were reconstituted in 200 µL 0.1 % formic acid/acetonitrile (90/10) and vortexed vigorously to dissolve. The samples were then transferred to separate polypropylene microcentrifuge tubes and centrifuged at 14000 x g for 10 min. (Fisher Micro 14, S/N M0017580). For each replicate (#1-3) at each timepoint (0 and 2 h), an aliquot sample of each test compound was combined into a single HPLC vial insert (6 total samples) for LC-MS analysis, which is described below.

[4] = target: LCK tyrosine kinase (Homo sapiens, UniProt P06239, C224D/P223M); assay: LCK spectrophotometric assay; format: biochemical; settings: Table 1, compound concentration 1 µM; for inhibition at 1 µM: read-out: Lck-P* (% inhibition); for Lck-P* (% inhibition): 1 µM
Description: The spectrophotometric assay was carried out as described above for VEGF-R2, except for the following changes in concentration: LCK = 60 nM, MgCl2 = 0 mM, poly(E4Y1) = 20 mM.

[5] = target: human FGF-R1 (Homo sapiens, UniProt P11362, C488A/C584S/L457V); assay: FGF-R spectrophotometric assay; format: biochemical; settings: Table 1, compound concentration 1 µM; for inhibition at 1 µM: read-out: FGF-P* (% inhibition); for FGF-P* (% inhibition): 1 µM
Description: The spectrophotometric assay was carried out as described above for VEGF-R2, except for the following changes in concentration: FGF-R = 50 nM, ATP = 2 mM, and poly(E4Y1) =15 mM.

[6] = target: unphosphorylated VEGF-R2Δ50 (Homo sapiens, UniProt P35968, DEL940-989/E990V); assay: biochemical; settings: for inhibition at 0.05 µM: read-out: FLVK ** (% inhibition)
[7] = + albumin, read-out: HUVEC + albumin IC50
[8] = PO, 25 mg/kg, vehicle PEG400:H2O pH 2.3 30:70
[9] = PO, 50 mg/kg, vehicle PEG400:H2O pH 2.3 30:70
[10] = IP, 25 mg/kg, vehicle PEG400:H2O pH 2.3 30:70

Chain of LCK tyrosine kinase (P06239 223-509 P223M/C224D): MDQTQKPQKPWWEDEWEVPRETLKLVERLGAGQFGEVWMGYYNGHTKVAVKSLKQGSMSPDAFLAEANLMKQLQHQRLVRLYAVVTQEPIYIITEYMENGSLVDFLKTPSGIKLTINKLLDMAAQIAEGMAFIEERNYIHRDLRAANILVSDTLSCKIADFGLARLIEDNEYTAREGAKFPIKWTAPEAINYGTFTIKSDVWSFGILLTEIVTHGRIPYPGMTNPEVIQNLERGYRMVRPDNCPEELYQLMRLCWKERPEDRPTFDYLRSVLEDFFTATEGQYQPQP
Chain of unphosphorylated VEGF-R2Δ50 (P35968 with tags, fused parts or gaps DEL940-989/E990V limits assumed): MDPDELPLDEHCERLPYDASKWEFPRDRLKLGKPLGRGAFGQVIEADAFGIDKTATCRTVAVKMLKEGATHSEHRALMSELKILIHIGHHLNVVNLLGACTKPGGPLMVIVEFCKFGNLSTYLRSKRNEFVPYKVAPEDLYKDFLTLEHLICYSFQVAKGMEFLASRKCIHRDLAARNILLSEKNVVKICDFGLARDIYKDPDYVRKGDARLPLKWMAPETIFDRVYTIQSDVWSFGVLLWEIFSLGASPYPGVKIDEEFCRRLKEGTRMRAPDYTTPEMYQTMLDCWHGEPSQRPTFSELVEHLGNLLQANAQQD
Chain of human FGF-R1 (P11362 456-766 L457V/C488A/C584S): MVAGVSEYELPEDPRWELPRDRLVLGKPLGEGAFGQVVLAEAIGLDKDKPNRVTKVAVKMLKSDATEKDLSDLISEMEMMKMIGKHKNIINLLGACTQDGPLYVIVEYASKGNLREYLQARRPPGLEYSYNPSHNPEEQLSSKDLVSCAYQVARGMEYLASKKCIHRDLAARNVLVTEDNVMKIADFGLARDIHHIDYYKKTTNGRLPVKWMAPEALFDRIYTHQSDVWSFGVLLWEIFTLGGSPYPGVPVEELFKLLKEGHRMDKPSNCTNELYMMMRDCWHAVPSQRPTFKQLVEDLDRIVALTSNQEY

O=C(Nc1cccc(C(=O)c2ccc3c(/C=C/c4ccccc4)n[nH]c3c2)c1)c1ccncc1 [19(j), 6-[3-(pyridin-4-ylcarboxamido)benzoyl]-3-E-styryl-1H-indazole]
AUC ([1]; ip, 25 mg/kg): 23200 ng·h/mL
AUC ([1]; po, 50 mg/kg): 5890 ng·h/mL
IC50 [2, 7]: 50 nM
IC50 ([2]; read-out: HUVEC IC50): 2.2 nM
remaining at 2 h, 5 µM [3]: 66%
inhibition at 1 µM [4]: 23%
T1/2 (IP, 25 mg/kg, vehicle PEG400:H2O pH 2.3 60:40): 1.6 h
T1/2 (PO, 50 mg/kg, vehicle PEG400:H2O pH 2.3 60:40): 1.2 h
inhibition at 1 µM [5]: 44%

O=C(NNc1ccccn1)c1ccccc1Sc1ccc2c(/C=C/c3ccccn3)n[nH]c2c1 [35 (n)]
AUC ([1]; po, 25 mg/kg): 4820 ng·h/mL
T1/2 [8]: 1.4 h

CN(O)C(=O)c1ccccc1Sc1ccc2c(/C=C/c3ccccn3)n[nH]c2c1 [35 (o)]
AUC ([1]; po, 25 mg/kg): 683 ng·h/mL
Cmin (7 hr conc.) [8]: 3 ng/mL
T1/2 [8]: 1.0 h

COc1cccc(C(=O)Nc2cccc(C(=O)c3ccc4c(/C=C/c5ccccn5)n[nH]c4c3)c2)c1 [41 (bb)]
AUC ([1]; po, 50 mg/kg): 2180 ng·h/mL
T1/2 [9]: 2.0 h

CC(=O)Nc1cc(C(=O)c2ccc3c(/C=C/c4ccccn4)n[nH]c3c2)ccc1C [41 (gg)]
AUC ([1]; po, 25 mg/kg): 2690 ng·h/mL
T1/2 [8]: 1.1 h

Cc1cc(C(=O)Nc2cc(C(=O)c3ccc4c(/C=C/c5ccccn5)n[nH]c4c3)ccc2C)n(C)n1 [41 (hh)]
AUC ([1]; po, 25 mg/kg): 5600 ng·h/mL
half-life ([1]; po, 25 mg/kg): 7.9 h

Cc1cc(C(=O)Nc2cc(C(=O)c3ccc4c(/C=C/c5ccccn5)n[nH]c4c3)c(C)cc2C)n(C)n1 [41 (mm)]
AUC ([1]; po, 25 mg/kg): 2260 ng·h/mL
half-life ([1]; po, 25 mg/kg): 2.5 h

Cn1nc(C(C)(C)C)cc1C(=O)Nc1cccc(C(=O)c2ccc3c(/C=C/c4ccccn4)n[nH]c3c2)c1 [41 (n)]
AUC ([1]; ip, 25 mg/kg): 9410 ng·h/mL
AUC ([1]; po, 50 mg/kg): 9070 ng·h/mL
T1/2 [10]: 3.2 h
T1/2 [9]: 1.9 h

Cc1cc(C(=O)Nc2cccc(C(=O)c3ccc4c(/C=C/c5ccccn5)n[nH]c4c3)c2)cc(Cl)n1 [41 (q)]
AUC ([1]; ip, 25 mg/kg): > 27000 ng·h/mL
T1/2 [8]: 5.2 h

C=CCn1nc(C)cc1C(=O)Nc1cccc(C(=O)c2ccc3c(/C=C/c4ccccn4)n[nH]c3c2)c1 [41 (t)]
AUC ([1]; po, 25 mg/kg): > 22500 ng·h/mL
T1/2 [8]: 4.0 h

COc1cc(C(=O)Nc2cccc(C(=O)c3ccc4c(/C=C/c5ccccn5)n[nH]c4c3)c2)cc(Cl)n1 [41 (u)]
AUC ([1]; po, 25 mg/kg): 875 ng·h/mL
T1/2 [8]: 5.6 h

Cc1cc(C(=O)Nc2cccc(C(=O)c3ccc4c(/C=C/c5ccccn5)n[nH]c4c3)c2)n(C(C)C)n1 [41 (x)]
AUC ([1]; po, 25 mg/kg): 24200 ng·h/mL
T1/2 [8]: 4.2 h

CCn1nc(C)cc1C(=O)Nc1cccc(Oc2ccc3c(/C=C/c4cn(C)c(C)n4)n[nH]c3c2)c1 [Reference Example 31(f), 6-[3-((1-Ethyl-3-methyl-1H-pyrazol-5-yl)carboxamido)phenoxy]-3-E-[2-(1,2-dimethyl-1H-imidazol-4-yl)ethenyl]-1H-indazole]
AUC ([1]; po, 25 mg/kg): > 245000 ng·h/mL
IC50 [2, 7]: > 10 nM
inhibition at 0.05 µM [6]: 97%
inhibition at 1 µM [4]: 62%
T1/2 [8]: 2.6 h
inhibition at 1 µM [5]: 99%

CCn1nc(C)cc1C(=O)Nc1cccc(Oc2ccc3c(/C=C/c4c[nH]cn4)n[nH]c3c2)c1 [Reference Example 32(b), 6-[3-((1-Ethyl-3-methyl-1H-pyrazol-5-yl)carboxamido)phenoxy]-3-E-[2-(1H-imidazol-4-yl)ethenyl]-1H-indazole]
AUC ([1]; po, 25 mg/kg): 490 ng·h/mL
IC50 [2, 7]: 21 nM
inhibition at 1 µM [4]: 70%
T1/2 [8]: 2.1 h
inhibition at 1 µM [5]: 95%

CCn1nc(C)cc1C(=O)Nc1cccc(Oc2ccc3c(/C=C/c4c[nH]c(C)n4)n[nH]c3c2)c1 [Reference Example 32(c), 6-[3-((1-Ethyl-3-methyl-1H-pyrazol-5-yl)carboxamido)phenoxy]-3-E-[2-(2-methylimidazol-4-yl)ethenyl]-1H-indazole]
AUC ([1]; po, 25 mg/kg): 388 ng·h/mL
IC50 [2, 7]: > 30 nM
inhibition at 1 µM [4]: 52%
T1/2 [8]: 2.4 h
inhibition at 1 µM [5]: 96%

O=C(Nc1ccccc1)c1ccccc1Sc1ccc2c(/C=C/c3ccccn3)n[nH]c2c1 [Reference Example 33(c), 6-[2-(phenylcarbamoyl)phenylsulfanyl]-3-E-[2-(pyrldin-2-yl)ethenyl]-1H-indazole]
AUC ([1]; ip, 25 mg/kg): 697 ng·h/mL
AUC ([1]; po, 50 mg/kg): 183 ng·h/mL
IC50 [2, 7]: 6.6 nM
% remain (HLM, 2 h) [3]: 16%
inhibition at 1 µM [4]: 26%
Cmin (7 hr conc.) [10]: 7 ng/mL
T1/2 [10]: 1.2 h
Cmin (7 hr conc.) [9]: 5 ng/mL
T1/2 [9]: 3.0 h
inhibition at 1 µM [5]: 76%

CCONC(=O)c1cccc(F)c1Sc1ccc2c(/C=C/c3ccccn3)n[nH]c2c1 [Reference Example 37(a), 6-[6-Fluoro-2-(ethoxycarbamoyl)phenylsulfanyl}-3-E-[2-(pyridin-2-yl)ethenyl]-1H-indazole]
IC50 [2, 7]: 15 nM
inhibition at 0.05 µM [6]: 57%
% remain (HLM, 2 h) [3]: 21, ! %
inhibition at 1 µM [4]: 6%
inhibition at 1 µM [5]: 35%

CC(C)ONC(=O)c1cccc(F)c1Sc1ccc2c(/C=C/c3ccccn3)n[nH]c2c1 [Reference Example 37(c), 6-[6-fluoro-2-(isopropoxycarbamoyl)phenylsulfanyl]-3-E-[2-(pyridin-2-yl)ethenyl]-1H-indazole]
IC50 [2, 7]: 12 nM
inhibition at 0.05 µM [6]: 83%
% remain (HLM, 2 h) [3]: 21%
inhibition at 1 µM [4]: 12%
inhibition at 1 µM [5]: 39%

COc1cccc(C(=O)Nc2cccc(C(=O)c3ccc4c(/C=C/c5ccccn5)n[nH]c4c3)c2)c1 [Reference Example 41(bb), 6-[3-(3-methoxybenzamido)benzoyl]-3-E-[2-(pyridin-2-yl)ethenyl]-1H-indazole]
IC50 [2, 7]: 1 to 3 nM
inhibition at 0.05 µM [6]: 99%
% remain (HLM, 2 h) [3]: 110%
inhibition at 1 µM [4]: 76%
inhibition at 1 µM [5]: 88%

CC(C)=CC(=O)Nc1cccc(C(=O)c2ccc3c(/C=C/c4ccccn4)n[nH]c3c2)c1 [Reference Example 41(dd), 6-[3-(3,3-dimethylacrylamido)benzoyl]-3-E-[2-(pyridin-2-yl)ethenyl]-1H-indazole]
IC50 [2, 7]: 5.8 nM
inhibition at 0.05 µM [6]: 98%
% remain (HLM, 2 h) [3]: 7%
inhibition at 1 µM [4]: 50%
inhibition at 1 µM [5]: 69%

Cc1cc(C(=O)Nc2cccc(C(=O)c3ccc4c(/C=C/c5ccccn5)n[nH]c4c3)c2)nn1C [Reference Example 41(i), 6-[3-((1,5-dimethyl-1H-pyrazol-3-yl)carboxamido)benzoyl]-3-E-[2-(pyridin-2-yl)ethenyl]-1H-indazole]
IC50 ([2]; read-out: HUVEC IC50): 0.25 nM
Ki ([6]; FLVK ** (Ki), Table 1): 0.24 nM and 0.04 nM
inhibition at 0.05 µM [6]: 98%
remaining at 2 h, 5 µM [3]: 48%
Lck-P* (% inhibition) [4]: 16%
Lck-P* (% inhibition) ([4]; listed as 41(I)): 63%* and 38%*
FGF-P* (% inhibition) [5]: 41%
FGF-P* (% inhibition) ([5]; listed as 41(I)): 66% and 76%

Cc1cc(C(=O)Nc2cc(C(=O)c3ccc4c(/C=C/c5ccccn5)n[nH]c4c3)ccc2C)n(C(C)C)n1 [Reference Example 41(kk), 6-[3-((1-Isopropyl-3-methyl-1H-pyrazol-5-yl)carboxamido)-4-methylbenzoyl]-3-E-[2-(pyridin-2-yl)ethenyl]-1H-indazole]
IC50 [2, 7]: 16 nM
inhibition at 0.05 µM [6]: 100%
% remain (HLM, 2 h) [3]: 63%
inhibition at 1 µM [4]: 26%
inhibition at 1 µM [5]: 97%

O=C(c1cccc(NC(=O)c2ccc(Cl)s2)c1)c1ccc2c(/C=C/c3ccccn3)n[nH]c2c1 [Reference Example 41(o), 6-[3-((5-chlorothien-2-yl)carboxamido)benzoyl]-3-E-[2-(pyridin-2-yl)ethenyl]-1H-indazole]
AUC ([1]; ip, 25 mg/kg): > 33800 ng·h/mL
IC50 [2, 7]: 10 nM
% remain (HLM, 2 h) [3]: 94%
inhibition at 1 µM [4]: 77%
inhibition at 1 µM [5]: 74%
